Experimental data as given in ChEMBL document CHEMBL1201862, “PubChem BioAssay data set” (2004).
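Five concentrations, 48 hours, 96-well plates. At the GI50, growth is halved.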 Active and inactive are the calls of the source. Cut-off read from the data, not from the text of the source: active = GI50 up to about 1.1 µM and inactive = higher.

What was measured:
Assay in all cases: NCI anticancer screen, dose series, 48 h
NCI-H460 = test system: NCI-H460
MDA-MB-435 = test system: MDA-MB-435
OVCAR-3 = test system: OVCAR-3
HL-60 = test system: HL-60
Malme-3M = test system: Malme-3M
OVCAR-5 = test system: OVCAR-5
SK-MEL-5 = test system: SK-MEL-5
SF-539 = test system: SF-539
UACC-62 = test system: UACC-62
SK-MEL-2 = test system: SK-MEL-2
BT-549 = test system: BT-549
HCT-116 = test system: HCT-116
A498 = test system: A498
COLO 205 = test system: COLO 205
NCI-H23 = test system: NCI-H23
SK-OV-3 = test system: SK-OV-3
SW-620 = test system: SW-620
HOP-92 = test system: HOP-92
CAKI-1 = test system: CAKI-1

Row | Structure (SMILES) | GI50 (NCI-H460) | GI50 (MDA-MB-435) | GI50 (OVCAR-3) | GI50 (HL-60) | GI50 (Malme-3M) | GI50 (OVCAR-5) | GI50 (SK-MEL-5) | GI50 (SF-539) | GI50 (UACC-62) | GI50 (SK-MEL-2) | GI50 (BT-549) | GI50 (HCT-116) | GI50 (A498) | GI50 (COLO 205) | GI50 (NCI-H23) | GI50 (SK-OV-3) | GI50 (SW-620) | GI50 (HOP-92) | GI50 (CAKI-1)
1 | NC(N)=NCCC[C@H](N)C(=O)NCC(=O)N[C@@H](CC(=O)O)c1ncc(NC(=O)C(F)(F)F)o1 | > 25 µM (inactive) | > 25 µM (inactive) | > 25 µM (inactive) | > 25 µM (inactive) | > 25 µM (inactive) | > 25 µM (inactive) | > 25 µM (inactive) | > 25 µM (inactive) | > 25 µM (inactive) | > 25 µM (inactive) | > 25 µM (inactive) | > 25 µM (inactive) | > 25 µM (inactive) | > 25 µM (inactive) | > 25 µM (inactive) | > 25 µM (inactive) | > 25 µM (inactive) | – | –
2 | COc1ccc(/C=N/Nc2nc3ccccc3c(=O)n2-c2ccccc2)c(OCc2ccccc2)c1 | > 100 µM (inactive) | > 100 µM (inactive) | > 100 µM (inactive) | > 100 µM (inactive) | > 100 µM (inactive) | > 100 µM (inactive) | > 100 µM (inactive) | 14.5 µM (inactive) | 70.6 µM (inactive) | 0.0656 µM (active) | – | > 100 µM (inactive) | > 100 µM (inactive) | > 100 µM (inactive) | > 100 µM (inactive) | > 100 µM (inactive) | > 100 µM (inactive) | 19.3 µM (inactive) | 34.8 µM (inactive)
3 | COc1cc2c(cc1OC)C(=O)/C(=C/c1ccc(O)cc1)CC2 | > 10 µM (inactive) | > 10 µM (inactive) | > 10 µM (inactive) | 7.31 µM (inactive) | > 10 µM (inactive) | > 10 µM (inactive) | > 10 µM (inactive) | > 10 µM (inactive) | > 10 µM (inactive) | > 10 µM (inactive) | > 10 µM (inactive) | > 10 µM (inactive) | – | > 10 µM (inactive) | > 10 µM (inactive) | > 10 µM (inactive) | > 10 µM (inactive) | > 10 µM (inactive) | 5.82 µM (inactive)
4 | C=CCCC1CCCCC/C1=N\N(C)C (centres undefined) | > 100 µM (inactive) | > 100 µM (inactive) | > 100 µM (inactive) | > 100 µM (inactive) | – | > 100 µM (inactive) | > 100 µM (inactive) | > 100 µM (inactive) | > 100 µM (inactive) | > 100 µM (inactive) | – | > 100 µM (inactive) | > 100 µM (inactive) | > 100 µM (inactive) | > 100 µM (inactive) | > 100 µM (inactive) | > 100 µM (inactive) | > 100 µM (inactive) | > 100 µM (inactive)
5 | COc1cc([C@H]2CC(=O)C[C@@H](c3cc(OC)c(OC)c(OC)c3)C23C(=O)c2ccccc2C3=O)cc(OC)c1OC | > 100 µM (inactive) | > 100 µM (inactive) | > 100 µM (inactive) | > 100 µM (inactive) | > 100 µM (inactive) | > 100 µM (inactive) | > 100 µM (inactive) | > 100 µM (inactive) | > 100 µM (inactive) | > 100 µM (inactive) | > 100 µM (inactive) | > 100 µM (inactive) | – | > 100 µM (inactive) | > 100 µM (inactive) | > 100 µM (inactive) | > 100 µM (inactive) | > 100 µM (inactive) | > 100 µM (inactive)
6 | Cc1c2ccccc2c(C)n2c1nc1cc(Cl)c(Cl)cc12 | 4.04 µM (inactive) | > 10 µM (inactive) | 0.163 µM (active) | 3.88 µM (inactive) | 0.166 µM (active) | > 10 µM (inactive) | > 10 µM (inactive) | > 10 µM (inactive) | > 10 µM (inactive) | > 10 µM (inactive) | > 10 µM (inactive) | > 10 µM (inactive) | – | > 10 µM (inactive) | > 10 µM (inactive) | > 10 µM (inactive) | > 10 µM (inactive) | – | > 10 µM (inactive)
7 | [N-]=[N+]=C(C(=O)CN1CCCC1=O)S(=O)(=O)c1ccccc1 | > 100 µM (inactive) | > 100 µM (inactive) | > 100 µM (inactive) | > 100 µM (inactive) | > 100 µM (inactive) | > 100 µM (inactive) | > 100 µM (inactive) | > 100 µM (inactive) | > 100 µM (inactive) | > 100 µM (inactive) | > 100 µM (inactive) | > 100 µM (inactive) | – | > 100 µM (inactive) | > 100 µM (inactive) | – | > 100 µM (inactive) | – | –
8 | COc1cc(C(=O)n2c3ccc(Br)cc3c3nc4ccccc4nc32)cc(OC)c1OC | > 100 µM (inactive) | > 100 µM (inactive) | > 100 µM (inactive) | > 100 µM (inactive) | > 100 µM (inactive) | > 100 µM (inactive) | > 100 µM (inactive) | 23.8 µM (inactive) | 42.6 µM (inactive) | 62.8 µM (inactive) | 37.3 µM (inactive) | > 100 µM (inactive) | – | > 100 µM (inactive) | > 100 µM (inactive) | – | > 100 µM (inactive) | 54.5 µM (inactive) | > 100 µM (inactive)
9 | OCCN(C1=NCCN1)/[N+](=C\c1ccccn1)[CH-]c1ccccn1 | > 100 µM (inactive) | > 100 µM (inactive) | > 100 µM (inactive) | > 100 µM (inactive) | > 100 µM (inactive) | > 100 µM (inactive) | > 100 µM (inactive) | > 100 µM (inactive) | > 100 µM (inactive) | – | > 100 µM (inactive) | > 100 µM (inactive) | > 100 µM (inactive) | > 100 µM (inactive) | > 100 µM (inactive) | > 100 µM (inactive) | > 100 µM (inactive) | – | > 100 µM (inactive)
10 | N/C(=N\c1ccc(Cl)cc1)NS(=O)(=O)c1ccc(-c2ncccc2C(F)(F)F)s1 | 13.1 µM (inactive) | – | 17.6 µM (inactive) | 15.2 µM (inactive) | 15.2 µM (inactive) | 24.3 µM (inactive) | 20.5 µM (inactive) | 25.8 µM (inactive) | 11.3 µM (inactive) | 15.8 µM (inactive) | 14.9 µM (inactive) | 14 µM (inactive) | 16.7 µM (inactive) | 42 µM (inactive) | 13.5 µM (inactive) | 17.4 µM (inactive) | 15.3 µM (inactive) | 14.7 µM (inactive) | –
11 | Cn1c2ccccc2c(=O)c2cccc(C(=O)NC(CCCNC(=N)N)C(=O)O)c21 (centres undefined) | > 100 µM (inactive) | > 100 µM (inactive) | > 100 µM (inactive) | – | > 100 µM (inactive) | > 100 µM (inactive) | > 100 µM (inactive) | > 100 µM (inactive) | > 100 µM (inactive) | > 100 µM (inactive) | > 100 µM (inactive) | > 100 µM (inactive) | – | > 100 µM (inactive) | > 100 µM (inactive) | > 100 µM (inactive) | > 100 µM (inactive) | – | –
12 | Cc1nc(Cl)nc(Cl)c1C | > 100 µM (inactive) | > 100 µM (inactive) | > 100 µM (inactive) | > 100 µM (inactive) | > 100 µM (inactive) | > 100 µM (inactive) | > 100 µM (inactive) | > 100 µM (inactive) | – | > 100 µM (inactive) | 75.7 µM (inactive) | – | – | – | > 100 µM (inactive) | > 100 µM (inactive) | > 100 µM (inactive) | – | –
